The values below are quoted from earlier work in US10507185B2, “Composite structural material and pharmaceutical composition thereof” (INNOVACO PHARMACEUTICALS, INC, priority 2013, dated 2019).

The structures appear in SMILES notation.

On to `CC(C)n1c(/C=C/C(O)CC(O)CC(=O)O)c(-c2ccc(F)cc2)c2ccccc21` (stereo not shown) [Fluvastatin, fluvastatin], for which the pKa value is recorded as 4.6.
